Measurements published in PubChem BioAssay (NCI).
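At the GI50, growth is halved. At the TGI there is no net growth.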

What was measured:
Assay in all cases: inhibition of tumour cell growth, NCI panel, 384-well format
[1] = system: COLO 205 colon
[2] = system: A549 NSCLC
[3] = system: NCI-H226 lung
[4] = system: MDA-MB-231 breast
[5] = system: EKVX NSCLC
[6] = system: UACC-257 melanoma
[7] = system: HOP-62 NSCLC
[8] = system: 786-0 renal
[9] = system: KM12 colon
[10] = system: SK-OV-3 ovarian
[11] = system: M14 melanoma
[12] = system: SK-MEL-28 melanoma
[13] = system: ACHN renal
[14] = system: SNB-19 CNS
[15] = system: CCRF-CEM leukemia
[16] = system: T-47D breast
[17] = system: SK-MEL-5 melanoma
[18] = system: OVCAR-4 ovarian
[19] = system: BT-549 breast
[20] = system: NCI-H460 NSCLC
[21] = system: IGROV1 ovarian
[22] = system: NCI-H522 lung
[23] = system: SN12C renal
[24] = system: HCT-116 colon
[25] = system: MDA-MB-468 breast
[26] = system: UACC-62 melanoma
[27] = system: SF-268 CNS
[28] = system: CAKI-1 renal
[29] = system: SNB-75 CNS
[30] = system: SF-539 CNS
[31] = system: NCI-H322M lung
[32] = system: LOX IMVI melanoma
[33] = system: HOP-92 NSCLC
[34] = system: OVCAR-3 ovarian
[35] = system: HCC-2998 colon
[36] = system: MOLT-4 leukemia
[37] = system: NCI-H23 lung
[38] = system: RXF 393 renal
[39] = system: NCI/ADR-RES ovarian
[40] = system: U251 glioblastoma
[41] = system: MDA-MB-435 melanoma
[42] = system: SF-295 CNS
[43] = system: UO-31 renal
[44] = system: TK-10 renal
[45] = system: HL-60(TB) leukemia
[46] = system: A498 renal
[47] = system: SW-620 colon
[48] = system: RPMI-8226 leukemia
[49] = system: PC-3 prostate
[50] = system: HS 578T breast
[51] = system: MALME-3M melanoma
[52] = system: K-562 leukemia
[53] = system: DU-145 prostate
[54] = system: OVCAR-8 ovarian
[55] = system: SR leukemia
[56] = system: HT29 colon
[57] = system: MCF7 breast
[58] = system: HCT-15 colon

## NC1CCC(N[C@@H]2C[C@H]2c2ccccc2)CC1 (stereo partly specified)
[1]
  GI50: 66.7 µM
  TGI: > 100 µM
[2]
  GI50: > 100 µM
  TGI: > 100 µM
[3]
  GI50: > 100 µM
  TGI: > 100 µM
[4]
  GI50: 90.5 µM
  TGI: > 100 µM
[5]
  GI50: 40.2 µM
  TGI: > 100 µM
[6]
  GI50: 17.5 µM
  TGI: 33.1 µM
[7]
  GI50: 66.9 µM
  TGI: > 100 µM
[8]
  GI50: 33.4 µM
  TGI: > 100 µM
[9]
  GI50: 61.9 µM
  TGI: > 100 µM
[10]
  GI50: > 100 µM
  TGI: > 100 µM
[11]
  GI50: 20.9 µM
  TGI: 40.2 µM
[12]
  GI50: 32.2 µM
  TGI: > 100 µM
[13]
  GI50: > 100 µM
  TGI: > 100 µM
[14]
  GI50: > 100 µM
  TGI: > 100 µM
[15]
  GI50: 31.5 µM
  TGI: > 100 µM
[16]
  GI50: > 100 µM
  TGI: > 100 µM
[17]
  GI50: 41.4 µM
  TGI: > 100 µM
[18]
  GI50: > 100 µM
  TGI: > 100 µM
[19]
  GI50: 46.2 µM
  TGI: > 100 µM
[20]
  GI50: 77 µM
  TGI: > 100 µM
[21]
  GI50: 48.8 µM
  TGI: > 100 µM
[22]
  GI50: 94.1 µM
  TGI: > 100 µM
[23]
  GI50: > 100 µM
  TGI: > 100 µM
[24]
  GI50: 41.6 µM
  TGI: > 100 µM
[25]
  GI50: 58.9 µM
  TGI: > 100 µM
[26]
  GI50: 19.4 µM
  TGI: 38.2 µM
[27]
  GI50: 76.2 µM
  TGI: > 100 µM
[28]
  GI50: 35.2 µM
  TGI: > 100 µM
[29]
  GI50: > 100 µM
  TGI: > 100 µM
[30]
  GI50: 23.4 µM
  TGI: 64.1 µM
[31]
  GI50: 86.4 µM
  TGI: > 100 µM
[32]
  GI50: 36.2 µM
  TGI: > 100 µM
[33]
  GI50: 35.9 µM
  TGI: > 100 µM
[34]
  GI50: 25 µM
  TGI: > 100 µM
[35]
  GI50: 40.1 µM
  TGI: > 100 µM
[36]
  GI50: 24 µM
  TGI: 77.8 µM
[37]
  GI50: 71.2 µM
  TGI: > 100 µM
[38]
  GI50: 32.1 µM
  TGI: > 100 µM
[39]
  GI50: > 100 µM
  TGI: > 100 µM
[40]
  GI50: 44.4 µM
  TGI: > 100 µM
[41]
  GI50: 38.1 µM
  TGI: > 100 µM
[42]
  GI50: > 100 µM
  TGI: > 100 µM
[43]
  GI50: 32.5 µM
  TGI: > 100 µM
[44]
  GI50: > 100 µM
  TGI: > 100 µM
[45]
  GI50: 10.2 µM
  TGI: 28.9 µM
[46]
  GI50: 28.3 µM
  TGI: > 100 µM
[47]
  GI50: > 100 µM
  TGI: > 100 µM
[48]
  GI50: 41.5 µM
  TGI: > 100 µM
[49]
  GI50: 64.7 µM
  TGI: > 100 µM
[50]
  GI50: 37.5 µM
  TGI: > 100 µM
[51]
  GI50: 21 µM
  TGI: 47.3 µM
[52]
  GI50: 31.4 µM
  TGI: > 100 µM
[53]
  GI50: 87.1 µM
  TGI: > 100 µM
[54]
  GI50: 49.4 µM
  TGI: > 100 µM
[55]
  GI50: 6.76 µM
  TGI: 18.6 µM
[56]
  GI50: 20 µM
  TGI: 43.7 µM
[57]
  GI50: > 100 µM
  TGI: > 100 µM
[58]
  GI50: 34.1 µM
  TGI: > 100 µM
